Activity calls are given as the source filed them.
What was measured:
[1] = target: T1, Short transient receptor potential channel 4 (Mus musculus, UniProt Q9QUQ5); assay: calcium entry via TRPC4 opening agents – cell-based, HEK293 TRPC4/mu-opioid, Fluo-4 calcium, dose response (AID 434937); type: functional
T1 sequence (Q9QUQ5 whole entry): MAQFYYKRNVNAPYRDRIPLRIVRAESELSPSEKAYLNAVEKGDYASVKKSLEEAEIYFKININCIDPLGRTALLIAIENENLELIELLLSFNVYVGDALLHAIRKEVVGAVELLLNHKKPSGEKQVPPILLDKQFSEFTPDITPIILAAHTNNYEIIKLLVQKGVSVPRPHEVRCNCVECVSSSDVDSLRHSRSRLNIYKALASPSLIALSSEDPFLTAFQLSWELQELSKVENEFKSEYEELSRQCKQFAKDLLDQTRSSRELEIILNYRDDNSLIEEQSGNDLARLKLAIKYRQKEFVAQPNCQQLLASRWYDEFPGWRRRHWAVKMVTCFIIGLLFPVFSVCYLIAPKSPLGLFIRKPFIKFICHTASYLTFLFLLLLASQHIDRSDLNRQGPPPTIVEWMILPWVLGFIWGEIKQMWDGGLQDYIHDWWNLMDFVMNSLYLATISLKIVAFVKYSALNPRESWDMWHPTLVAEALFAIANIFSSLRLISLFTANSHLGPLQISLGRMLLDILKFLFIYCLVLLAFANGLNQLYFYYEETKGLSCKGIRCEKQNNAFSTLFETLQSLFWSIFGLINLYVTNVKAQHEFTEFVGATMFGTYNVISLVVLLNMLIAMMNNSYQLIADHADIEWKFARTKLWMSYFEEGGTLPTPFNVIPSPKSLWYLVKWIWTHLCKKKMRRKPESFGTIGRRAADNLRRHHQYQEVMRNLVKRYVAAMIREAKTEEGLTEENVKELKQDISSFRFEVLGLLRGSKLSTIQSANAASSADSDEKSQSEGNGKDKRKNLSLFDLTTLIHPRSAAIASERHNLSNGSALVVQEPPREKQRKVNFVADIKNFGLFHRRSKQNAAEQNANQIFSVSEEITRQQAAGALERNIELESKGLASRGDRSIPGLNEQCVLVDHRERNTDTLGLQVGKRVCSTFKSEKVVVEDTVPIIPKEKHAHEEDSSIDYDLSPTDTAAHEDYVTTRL

[2] = target: Delta-type opioid receptor (Homo sapiens, UniProt P41143); assay: Counterscreen for agonists of heterodimerization of the mu 1 (OPRM1) and delta 1 (OPRD1) opioid receptors: Luminescence-based cell-based high throughput dose response assay to identify agonists of OPRD1 homodimerization. [Related pubchem assays (depositor defined):AID504326, AID504355, AID504692, AID504904, AID504905]; type: functional
Mu-type opioid receptor = Mu-type opioid receptor (Homo sapiens, UniProt P35372); assay: Counterscreen for agonists of heterodimerization of the mu 1 (OPRM1) and delta 1 (OPRD1) opioid receptors: Luminescence-based cell-based high throughput dose response assay to identify agonists of OPRM1 homodimerization.; type: functional;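 note: U2OS cells expressing OPRM1 and beta-arrestin as split beta-galactosidase partners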
[3] = target: 5-hydroxytryptamine receptor 5A (Homo sapiens, UniProt P47898); assay: Counterscreen for agonists of OPRM1-OPRD1 heterodimerization: luminescence-based cell-based high throughput dose response assay to identify agonists of 5-hydroxytryptamine (serotonin) 5A receptor (HTR5A). [Related pubchem assays (depositor defined):AID504326, AID504355, AID504692, AID504904, AID504905]; type: functional
BJ [4] = assay: BJ-TERT fibroblast viability loss – cell-based, RAS-independent, luminescence, dose response (AID 1933); type: functional; details: Homo sapiens
BJ [5] = assay: cells; type: functional, cell-based; details: Homo sapiens
[6] = target: T2, G-protein coupled receptor 55 (Homo sapiens, UniProt Q9Y2T6); assay: inhibition of LPI-stimulated GPR55 beta-arrestin translocation – imaging, U2OS, beta-arrestin-GFP, LPI agonist, primary screen (AID 2013); type: functional;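 note: antagonist potency measured as reduced agonist-driven arrestin aggregation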
BJ [7] = assay: BJ-TERT-LT-ST fibroblast viability loss – cell-based, RAS-independent, luminescence, dose response (AID 1935); type: functional; details: Homo sapiens;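 note: BJ fibroblasts immortalized with TERT plus LT and ST oncogenes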
[8] = DRD fibroblast viability loss – cell-based, non-viral oncogenic, luminescence, dose response (AID 1934); type: functional; details: Homo sapiens
[9] = target: T2, G-protein coupled receptor 55; assay: selective activators of receptor GPR55 – imaging, U2OS cells, beta-arrestin-GFP redistribution, primary screen (AID 1961); type: functional
[10] = target: T3, Replicative DNA helicase DnaB (Mycobacterium tuberculosis, UniProt P9WMR3); assay: DnaB intein splicing inhibitors, dose response, biochemical, cell-free fluorescence (AID 449749); type: functional
T3 sequence (P9WMR3 whole entry): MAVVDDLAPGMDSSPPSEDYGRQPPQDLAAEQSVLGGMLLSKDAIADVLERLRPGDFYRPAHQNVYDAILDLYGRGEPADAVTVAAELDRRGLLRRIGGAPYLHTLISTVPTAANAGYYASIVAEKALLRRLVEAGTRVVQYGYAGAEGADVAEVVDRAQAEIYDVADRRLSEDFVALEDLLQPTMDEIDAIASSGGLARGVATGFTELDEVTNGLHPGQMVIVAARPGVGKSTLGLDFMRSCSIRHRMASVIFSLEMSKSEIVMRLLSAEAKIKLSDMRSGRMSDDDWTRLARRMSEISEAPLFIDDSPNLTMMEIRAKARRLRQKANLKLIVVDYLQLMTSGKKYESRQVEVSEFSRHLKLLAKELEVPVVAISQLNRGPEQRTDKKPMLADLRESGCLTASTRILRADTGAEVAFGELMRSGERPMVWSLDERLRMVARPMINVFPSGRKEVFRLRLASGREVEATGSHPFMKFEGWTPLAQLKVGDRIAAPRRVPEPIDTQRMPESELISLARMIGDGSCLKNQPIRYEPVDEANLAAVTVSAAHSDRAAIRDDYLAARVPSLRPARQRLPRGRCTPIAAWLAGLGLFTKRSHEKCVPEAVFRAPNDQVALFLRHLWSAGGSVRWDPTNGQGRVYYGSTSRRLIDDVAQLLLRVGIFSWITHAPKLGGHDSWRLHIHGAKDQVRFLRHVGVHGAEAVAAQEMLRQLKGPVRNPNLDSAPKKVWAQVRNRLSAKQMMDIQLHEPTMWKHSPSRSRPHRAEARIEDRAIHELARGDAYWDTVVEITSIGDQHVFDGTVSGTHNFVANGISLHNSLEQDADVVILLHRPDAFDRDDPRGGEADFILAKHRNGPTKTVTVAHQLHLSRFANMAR

Insulin-degrading enzyme [11] = target: T4, Insulin-degrading enzyme (Homo sapiens, UniProt P14735); assay: recombinant IDE activation, cell-free – biochemical, fluorescence polarization, counter-screen for IDE activator project, dose response (AID 588681)
T4 sequence (P14735 whole entry): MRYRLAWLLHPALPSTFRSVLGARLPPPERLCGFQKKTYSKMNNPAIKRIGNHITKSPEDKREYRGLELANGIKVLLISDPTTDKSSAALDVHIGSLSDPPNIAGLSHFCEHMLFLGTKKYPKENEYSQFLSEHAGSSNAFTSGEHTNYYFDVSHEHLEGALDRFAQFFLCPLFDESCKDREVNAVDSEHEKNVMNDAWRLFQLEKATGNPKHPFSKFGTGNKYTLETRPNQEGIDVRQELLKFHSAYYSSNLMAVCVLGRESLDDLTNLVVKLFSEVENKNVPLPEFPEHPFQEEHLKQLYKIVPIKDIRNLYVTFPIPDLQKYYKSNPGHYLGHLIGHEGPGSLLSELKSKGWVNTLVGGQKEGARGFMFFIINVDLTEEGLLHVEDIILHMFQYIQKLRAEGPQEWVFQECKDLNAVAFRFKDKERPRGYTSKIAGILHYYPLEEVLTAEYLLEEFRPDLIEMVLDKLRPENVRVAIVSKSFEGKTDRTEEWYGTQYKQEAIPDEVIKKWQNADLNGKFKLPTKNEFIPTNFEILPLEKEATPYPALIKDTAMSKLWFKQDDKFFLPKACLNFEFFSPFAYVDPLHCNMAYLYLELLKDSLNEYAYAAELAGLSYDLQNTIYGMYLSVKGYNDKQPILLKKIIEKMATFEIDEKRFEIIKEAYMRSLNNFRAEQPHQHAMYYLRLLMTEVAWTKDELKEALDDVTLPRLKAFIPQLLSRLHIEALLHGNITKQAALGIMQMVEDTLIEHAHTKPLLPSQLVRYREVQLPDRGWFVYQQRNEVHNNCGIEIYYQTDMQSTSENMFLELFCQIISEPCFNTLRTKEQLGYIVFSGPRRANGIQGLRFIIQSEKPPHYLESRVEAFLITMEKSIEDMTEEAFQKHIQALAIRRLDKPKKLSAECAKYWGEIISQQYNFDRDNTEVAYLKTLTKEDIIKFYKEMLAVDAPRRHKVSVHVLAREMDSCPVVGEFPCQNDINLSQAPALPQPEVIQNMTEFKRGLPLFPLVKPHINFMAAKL

BJ [12] = assay: growth inhibition of engineered Ras-driven BJ cells – cell-based, alamar blue fluorescence, cherrypicked samples, dose response (AID 2631); type: functional; details: Homo sapiens;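 note: confirmatory dose-response assay in RAS-dependent BJ fibroblasts engineered with TERT, LT and ST, with cytotoxicity read by fluorescence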
Protein RecA = target: T5, Protein RecA (Mycobacterium tuberculosis, UniProt P9WHJ3); assay: Fluorescence Cell-Free Homogeneous Dose Retest to Identify Inhibitors of RecA-Intein Splicing Activity. [Related pubchem assays (depositor defined):AID2097, AID2223, AID489010, AID492950]; type: functional
T5 sequence (P9WHJ3 whole entry): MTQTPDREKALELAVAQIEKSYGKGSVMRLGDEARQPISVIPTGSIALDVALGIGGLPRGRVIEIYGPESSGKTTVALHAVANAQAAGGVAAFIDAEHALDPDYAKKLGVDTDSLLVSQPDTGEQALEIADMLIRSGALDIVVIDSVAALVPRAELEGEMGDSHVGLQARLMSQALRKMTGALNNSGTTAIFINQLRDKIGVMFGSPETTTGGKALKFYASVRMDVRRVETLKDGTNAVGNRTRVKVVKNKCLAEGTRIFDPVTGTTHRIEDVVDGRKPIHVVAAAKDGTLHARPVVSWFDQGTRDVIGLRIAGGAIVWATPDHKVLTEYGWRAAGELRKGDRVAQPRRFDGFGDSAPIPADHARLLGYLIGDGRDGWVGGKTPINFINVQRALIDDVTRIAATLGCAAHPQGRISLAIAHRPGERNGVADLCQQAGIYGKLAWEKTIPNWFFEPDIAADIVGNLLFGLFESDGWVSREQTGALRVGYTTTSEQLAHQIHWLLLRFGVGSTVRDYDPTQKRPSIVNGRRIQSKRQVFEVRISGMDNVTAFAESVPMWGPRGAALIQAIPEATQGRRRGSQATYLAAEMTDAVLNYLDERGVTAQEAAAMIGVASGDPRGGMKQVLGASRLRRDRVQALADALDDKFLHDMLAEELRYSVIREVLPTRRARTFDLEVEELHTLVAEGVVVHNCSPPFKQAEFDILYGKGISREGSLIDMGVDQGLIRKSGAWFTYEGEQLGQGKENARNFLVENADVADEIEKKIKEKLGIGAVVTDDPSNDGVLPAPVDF

Insulin-degrading enzyme [13] = target: T4, Insulin-degrading enzyme; assay: cellular IDE activation of Abeta substrate cleavage – fluorescence polarization, HEK cells, dose response (AID 588439); type: functional, cell-based
Vero = assay: cells; type: functional; details: Chlorocebus sabaeus
HEK293 [14] = assay: membrane integrity loss in HEK cells – cell-based, fluorescence, cytotoxicity control for IDE activator project, dose response (AID 588440); type: functional; details: Homo sapiens;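 note: cytotoxicity by LDH release measuring loss of membrane integrity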
HEK293 [15] = assay: optical interference in Abeta FP readout, dose response, artefact control for IDE activator project, biochemical, fluorescence polarization (AID 588442); type: functional, cell-based; details: Homo sapiens
HEK293 [16] = assay: cells; details: Homo sapiens
HEK293 [17] = assay: cells; details: Homo sapiens; remark: listed apart in the source
Escherichia coli = assay: microbe, parasite or virus in culture
A-375 [18] = assay: MITF: Counter assay: A375 proliferation Measured in Cell-Based System Using Plate Reader - 2084-03_Inhibitor_Dose_DryPowder_Activity. [Related pubchem assays (depositor defined):AID488944]; type: functional; details: Homo sapiens
A-375 [19] = assay: proliferation inhibition in MITF-low A375 cells – cell-based, cherry-pick samples, set 2, counter-screen for MITF modulator project, dose response (AID 540335); type: functional; details: Homo sapiens

T2 sequence (Q9Y2T6 whole entry): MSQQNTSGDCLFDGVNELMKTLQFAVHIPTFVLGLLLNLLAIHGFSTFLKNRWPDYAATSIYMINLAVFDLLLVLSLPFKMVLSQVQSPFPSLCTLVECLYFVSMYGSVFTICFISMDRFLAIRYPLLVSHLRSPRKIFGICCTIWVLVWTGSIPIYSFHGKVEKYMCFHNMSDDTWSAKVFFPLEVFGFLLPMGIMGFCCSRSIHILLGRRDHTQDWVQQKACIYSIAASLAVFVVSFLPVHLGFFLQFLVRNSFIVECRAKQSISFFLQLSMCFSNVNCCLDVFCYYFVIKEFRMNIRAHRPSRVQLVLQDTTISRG
Chain of Mu-type opioid receptor (P35372 whole entry): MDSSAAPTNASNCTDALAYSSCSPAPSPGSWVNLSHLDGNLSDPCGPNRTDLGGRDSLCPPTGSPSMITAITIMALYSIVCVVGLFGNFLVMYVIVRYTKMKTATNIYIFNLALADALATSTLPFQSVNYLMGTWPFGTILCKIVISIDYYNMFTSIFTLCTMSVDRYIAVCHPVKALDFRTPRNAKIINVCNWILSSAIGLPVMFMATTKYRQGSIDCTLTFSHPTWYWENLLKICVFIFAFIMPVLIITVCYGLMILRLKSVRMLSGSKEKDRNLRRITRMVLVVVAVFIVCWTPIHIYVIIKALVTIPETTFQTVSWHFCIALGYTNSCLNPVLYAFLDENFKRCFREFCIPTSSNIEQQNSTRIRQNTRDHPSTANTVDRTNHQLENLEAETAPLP
Chain of Delta-type opioid receptor (P41143 whole entry): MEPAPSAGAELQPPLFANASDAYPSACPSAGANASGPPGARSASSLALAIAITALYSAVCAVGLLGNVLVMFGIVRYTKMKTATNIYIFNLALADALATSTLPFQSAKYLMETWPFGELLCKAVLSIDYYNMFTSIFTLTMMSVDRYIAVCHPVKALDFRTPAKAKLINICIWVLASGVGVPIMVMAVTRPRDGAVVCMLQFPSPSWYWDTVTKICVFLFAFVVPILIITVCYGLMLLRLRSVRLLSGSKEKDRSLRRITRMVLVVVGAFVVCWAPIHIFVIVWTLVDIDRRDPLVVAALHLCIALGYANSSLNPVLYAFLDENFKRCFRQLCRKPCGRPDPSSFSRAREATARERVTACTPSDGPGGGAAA
Chain of 5-hydroxytryptamine receptor 5A (P47898 whole entry): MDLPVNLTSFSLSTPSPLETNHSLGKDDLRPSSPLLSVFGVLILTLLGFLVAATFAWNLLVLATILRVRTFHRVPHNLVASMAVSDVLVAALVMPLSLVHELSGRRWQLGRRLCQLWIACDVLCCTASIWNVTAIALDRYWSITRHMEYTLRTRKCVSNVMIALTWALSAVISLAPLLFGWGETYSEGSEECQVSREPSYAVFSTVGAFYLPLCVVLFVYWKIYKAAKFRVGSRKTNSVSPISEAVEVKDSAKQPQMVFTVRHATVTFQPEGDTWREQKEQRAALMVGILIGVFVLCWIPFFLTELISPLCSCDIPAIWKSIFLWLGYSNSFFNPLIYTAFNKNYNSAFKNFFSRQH

COC(=O)NCC(c1ccc2c(c1)OCO2)N1CCN(c2ccccc2)CC1 (stereo not drawn)
EC50 [1]: 105 nM (active)
EC50 [2]: > 92.4 µM (inactive)
EC50 (Mu-type opioid receptor): 17.3 µM (inactive)
EC50 [3]: > 92.4 µM (inactive)

CCOC(=O)c1c(CSC(=N)N)n(-c2ccc(C)cc2)c2cc(Br)c(OC(C)=O)cc12
EC50 (BJ [4]): 5.98 µM (active)
EC50 (BJ [5]): 12 µM (inconclusive)
IC50 [6]: 5.03 µM (active)
EC50 (BJ [7]): 5.6 µM (active)
EC50 [8]: 9.02 µM (active)
EC50 [9]: > 32 µM (inactive)
AC50 [10]: 4.79 µM (active)
EC50 (Insulin-degrading enzyme [11]): > 54.7 µM (inactive)
EC50 (BJ [12]): > 133 µM (inactive)
EC50 (Protein RecA): 4.25 µM (active)
EC50 (Insulin-degrading enzyme [13]): > 54.7 µM (inactive)
CC50 (Vero): > 25 µM (active)
IC50 (HEK293 [14]): 9.83 µM (active)
EC50 (HEK293 [15]): > 54.7 µM (inactive)
EC50 (HEK293 [16]): > 59.7 µM (inactive)
EC50 (HEK293 [17]): > 59.7 µM (inactive)

c1ccc2c(OCCCN3CCCCCC3)cccc2c1
AC50 (Escherichia coli): 19.6 µM (active)

CCOc1ccc(/N=C(\C)C2=C(O)c3ccccc3C2=O)cc1
AC50 (A-375 [18]): > 35 µM (active)
AC50 (A-375 [19]): > 35 µM (active)
